{"source": "PubChem BioAssay AID330", "about": "(DTP/NCI, 2004)", "system": "P388 leukemia ip, CD2F1 mice, survival T/C", "test": "NCI In Vivo Anticancer Drug Screen. Data for tumor model P388 Leukemia (intraperitoneal) in CD2F1 (CDF1) mice", "conditions": "endpoint: median survival time, higher = longer survival", "how_it_was_run": "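Mice carrying the transplanted tumor received test compound or vehicle. Survival was recorded in each group, and the value is the treated-group measurement divided by that of the vehicle-treated control group.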", "note": "Where “and” joins values, the source holds several entries; their conditions need not be identical. Equal values may be shown once. Toxic doses and inconclusive results are not listed.", "data": [{"smiles": "COC(=O)[C@@]12OC[C@]34[C@H]([C@@H](O)[C@@H]1O)[C@@]1(C)CC(=O)C(O)=C(C)[C@@H]1C[C@H]3OC(=O)[C@H](OC(=O)/C=C(\\C)C(C)C)[C@@H]24", "values": [{"measurement": "T/C", "setting": "dose: 0.03 mg/kg/injection, schedule: Q01DX009 (ip), vehicle: saline + alcohol", "result": "108 % of control"}, {"measurement": "T/C", "setting": "dose: 0.06 mg/kg/injection, schedule: Q01DX009 (sc), vehicle: saline + alcohol", "result": "107 % of control"}, {"measurement": "T/C", "setting": "dose: 0.06 mg/kg/injection, schedule: Q03HX024 (ip), vehicle: saline + alcohol", "result": "152 % of control"}, {"measurement": "T/C", "setting": "dose: 0.13 mg/kg/injection, schedule: Q01DX009 (ip), vehicle: saline with Tween-80", "result": "160 % of control"}, {"measurement": "T/C", "setting": "dose: 0.13 mg/kg/injection, schedule: Q01DX009 (sc), vehicle: saline + alcohol", "result": "108 % of control"}, {"measurement": "T/C", "setting": "dose: 0.13 mg/kg/injection, schedule: Q03HX024 (ip), vehicle: saline + alcohol", "result": "151 % of control"}, {"measurement": "T/C", "setting": "dose: 0.25 mg/kg/injection, schedule: Q01DX009 (ip), vehicle: distilled water + Tween-80", "result": "155 % of control and 177 % of control"}, {"measurement": "T/C", "setting": "dose: 0.25 mg/kg/injection, schedule: Q01DX009 (ip), vehicle: saline with Tween-80", "result": "156 % of control"}, {"measurement": "T/C", "setting": "dose: 0.25 mg/kg/injection, schedule: Q01DX009 (sc), vehicle: saline + alcohol", "result": "106 % of control"}, {"measurement": "T/C", "setting": "dose: 0.25 mg/kg/injection, schedule: Q03HX024 (ip), vehicle: saline + alcohol", "result": "164 % of control"}, {"measurement": "T/C", "setting": "dose: 0.38 mg/kg/injection, schedule: Q01DX009 (ip), vehicle: saline + Tween-80 + alcohol", "result": "155 % of control"}, {"measurement": "T/C", "setting": "dose: 0.5 mg/kg/injection, schedule: Q01DX009 (ip), vehicle: distilled water + Tween-80", "result": "155 % of control and 185 % of control"}, {"measurement": "T/C", "setting": "dose: 0.5 mg/kg/injection, schedule: Q01DX009 (ip), vehicle: saline with Tween-80", "result": "169 % of control"}, {"measurement": "T/C", "setting": "dose: 0.5 mg/kg/injection, schedule: Q01DX009 (oral), vehicle: saline + alcohol", "result": "102 % of control"}, {"measurement": "T/C", "setting": "dose: 0.5 mg/kg/injection, schedule: Q01DX009 (sc), vehicle: saline + alcohol", "result": "110 % of control"}, {"measurement": "T/C", "setting": "dose: 0.5 mg/kg/injection, schedule: Q08DX002 (ip), vehicle: saline + alcohol", "result": "101 % of control"}, {"measurement": "T/C", "setting": "dose: 1.0 mg/kg/injection, schedule: Q01DX001 (ip), vehicle: saline + alcohol", "result": "111 % of control"}, {"measurement": "T/C", "setting": "dose: 1.0 mg/kg/injection, schedule: Q01DX001 (sc), vehicle: saline + alcohol", "result": "109 % of control"}, {"measurement": "T/C", "setting": "dose: 1.0 mg/kg/injection, schedule: Q01DX005 (ip), vehicle: water", "result": "155 % of control"}, {"measurement": "T/C", "setting": "dose: 1.0 mg/kg/injection, schedule: Q01DX009 (ip), vehicle: distilled water + Tween-80", "result": "158 % of control and 166 % of control"}, {"measurement": "T/C", "setting": "dose: 1.0 mg/kg/injection, schedule: Q01DX009 (ip), vehicle: saline with Tween-80", "result": "185 % of control"}, {"measurement": "T/C", "setting": "dose: 1.0 mg/kg/injection, schedule: Q01DX009 (oral), vehicle: saline + alcohol", "result": "104 % of control"}, {"measurement": "T/C", "setting": "dose: 1.0 mg/kg/injection, schedule: Q08DX002 (ip), vehicle: saline + alcohol", "result": "100 % of control"}, {"measurement": "T/C", "setting": "dose: 2.0 mg/kg/injection, schedule: Q01DX001 (ip), vehicle: saline + alcohol", "result": "116 % of control"}, {"measurement": "T/C", "setting": "dose: 2.0 mg/kg/injection, schedule: Q01DX001 (sc), vehicle: saline + alcohol", "result": "115 % of control"}, {"measurement": "T/C", "setting": "dose: 2.0 mg/kg/injection, schedule: Q01DX009 (ip), vehicle: saline with Tween-80", "result": "209 % of control"}, {"measurement": "T/C", "setting": "dose: 2.0 mg/kg/injection, schedule: Q01DX009 (oral), vehicle: saline + alcohol", "result": "104 % of control"}, {"measurement": "T/C", "setting": "dose: 2.0 mg/kg/injection, schedule: Q08DX002 (ip), vehicle: saline + alcohol", "result": "102 % of control"}, {"measurement": "T/C", "setting": "dose: 4.0 mg/kg/injection, schedule: Q01DX001 (ip), vehicle: saline + alcohol", "result": "120 % of control"}, {"measurement": "T/C", "setting": "dose: 4.0 mg/kg/injection, schedule: Q01DX001 (oral), vehicle: saline + alcohol", "result": "106 % of control"}, {"measurement": "T/C", "setting": "dose: 125.0 micrograms/kg/injection, schedule: Q01DX009 (ip), vehicle: saline + alcohol", "result": "124 % of control"}, {"measurement": "T/C", "setting": "dose: 250.0 micrograms/kg/injection, schedule: Q01DX009 (ip), vehicle: saline + alcohol", "result": "155 % of control"}, {"measurement": "T/C", "setting": "dose: 500.0 micrograms/kg/injection, schedule: Q01DX009 (ip), vehicle: saline + alcohol", "result": "171 % of control"}, {"measurement": "T/C", "setting": "dose: 1000.0 micrograms/kg/injection, schedule: Q01DX009 (ip), vehicle: saline + alcohol", "result": "160 % of control and 197 % of control"}, {"measurement": "T/C", "setting": "dose: 2000.0 micrograms/kg/injection, schedule: Q01DX009 (ip), vehicle: saline + alcohol", "result": "152 % of control"}]}, {"smiles": "CC1(C)CC(=O)c2c(ncc3cc4c(cc23)OCO4)C1", "values": [{"measurement": "T/C", "setting": "dose: 100.0 mg/kg/injection, schedule: Q04DX002 (ip), vehicle: saline with Tween-80", "result": "110 % of control"}, {"measurement": "T/C", "setting": "dose: 200.0 mg/kg/injection, schedule: Q04DX002 (ip), vehicle: saline with Tween-80", "result": "118 % of control"}]}]}
